Assay results: patent US20090264415A2 (priority 2004, published 2009)

The compounds below were run on production of human TNF-α by PBMC in response to LPS (assay: TNF-α assay (LPS-stimulated PBMC, sandwich ELISA)). Settings: Homo sapiens, PBMC; LPS 1 μg/ml, 72 hours; read-out: TNF α.
Assay type: cell-based
Protocol: Peripheral blood mononuclear cells (herein referred as PBMC), in response to stimulation by lipopolysaccharide (hereinafter LPS), a gram-negative bacterial endotoxin, produce various […], in particular human TNF-α. Inhibition of the activation of PBMC can therefore be measured by the level of suppression of the production of TNF-α by PBMC in response to stimulation by LPS. Inhibition measurement was performed as follows: PBMC were isolated from heparinized peripheral blood by density gradient centrifugation over Lymphoprep (commercially available from Nycomed, Norway). LPS was then added to the PMBC suspension in complete medium (10^6 cells/ml) at a final concentration of 1 μg/ml. The pteridine derivative to be tested was added at different concentrations (0.1 μM, 1 μM and 10 μM) and the cells were incubated at 37° C. for 72 hours in 5% CO2. The supernatants were collected, then TNF-α concentrations were measured with respectively an anti-TNF-α antibody in a sandwich ELISA (Duo Set ELISA human TNFα, commercially available from R&D Systems, United Kingdom). The colorimetric reading of the ELISA was measured by a Multiskan RC plate reader (commercially available from ThermoLabsystems, Finland) at 450 nm (reference wavelength: 690 nm). Data analysis was performed with Ascent software 2.6. (also from ThermoLabsystems, Finland): a standard curve (recombinant human TNFα) was drawn and the amount (pg/ml) of each sample on the standard curve was determined. The % suppression of human TNFα production by the pyrido[3,2-d]pyrimidine derivatives of the invention was calculated using the formula: [formula]

`COc1ccc(-c2ccc3nc(N)nc(N4CCN(CC(=O)NCCc5ccccc5)CC4)c3n2)cc1OC` [Example 270, 2-amino-4-[4-(N-2-phenylethylacetamid-2-yl)piperazin-1-yl]-6-(3,4-dimethoxyphenyl)-pyrido[3,2-d]pyrimidine] was tested. Which IC50 did it give?
Its IC50 is 300 nM.

For `COc1ccc(-c2ccc3nc(N)nc(NCCC(=O)N4CCN(C(C)=O)CC4)c3n2)cc1OC` [Example 272, 2-amino-4-[3-(4-acetylpiperazin-1-yl)-propan-3-one-1-yl-amino]-6-(3,4-dimethoxyphenyl)-pyrido[3,2-d]pyrimidine], which IC50 is on record?
Its IC50 is 700 nM.

For `COc1ccc(-c2ccc3nc(N)nc(N4CCN(CC(=O)N5CCCC5)CC4)c3n2)cc1OC` [Example 273, 2-amino-4-(N-pyrrolidinyl-acetamid-2-yl-piperazin-1-yl)-6-(3,4-dimethoxyphenyl)pyrido[3,2-d]pyrimidine], which IC50 is on record?
The IC50 was 80 nM.

How did the IC50 turn out when `COc1ccc(-c2ccc3nc(N)nc(N4CCN(CC(=O)Nc5ccccn5)CC4)c3n2)cc1OC` [Example 274, 2-amino-4-(N-pyridinylacetamid-2-yl-piperazin-1-yl)-6-(3,4-dimethoxyphenyl)-pyrido[3,2-d]pyrimidine] was run?
The IC50 was 80 nM.

With `COc1ccc(-c2ccc3nc(N)nc(N4CCN(CC(=O)N5CCOCC5)CC4)c3c2)cc1OC` [Example 275, 2-amino-4-[N-(piperazino)-acetyl-morpholino]-6-(3,4-dimethoxyphenyl)-pyrido[3,2-d]pyrimidine] as the compound, how does the IC50 read?
Its IC50 is 97 nM.

`COc1ccc(-c2ccc3nc(N)nc(NCC(=O)N4CCN(C)CC4)c3n2)cc1OC` [Example 276, 2-amino-4-[2-amino-1-(4-methyl-piperazin-1-yl)-ethanone]-6-(3,4-dimethoxyphenyl)-pyrido[3,2-d]pyrimidine] was tested. Which IC50 did it give?
Its IC50 is 600 nM.

Same assay, conditions: LPS 1 μg/ml, 72 hours; read-out: TNF α

How did the IC50 turn out when `COc1ccc(-c2ccc3ncnc(N4CCN(CCOc5ccccc5)CC4)c3n2)cc1OC` [Example 5, 4-[(2-phenoxyethyl)-piperazin-1-yl]-6-(3,4-dimethoxyphenyl)-pyrido[3,2-d]pyrimidine] was run?
Its IC50 is 650 nM.

These compounds were tested on peripheral blood mononuclear cells (PBMC) stimulated with allogeneic PBMC or EBV-transformed human B cells (RPMI1788) (assay: Mixed lymphocyte reaction (MLR) assay). Settings: 50% suppression of the MLR, [3H]-thymidine incorporation; read-out: MLR.
Assay type: cell-based
How it was run: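 Responder PBMC co-cultured in triplicate with 30 Gy-irradiated allogeneic PBMC or RPMI1788 B cells plus compound (DMSO stock 10 mM, diluted in medium). After 5 days at 37° C, 1 μCi [3H]-thymidine added for 16 h more; incorporated cpm counted and proliferation inhibition calculated.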

Which IC50 does the source give for `COc1ccc(-c2ccc3ncnc(N4CCN(CCOc5ccccc5)CC4)c3n2)cc1OC` [Example 5, 4-[(2-phenoxyethyl)-piperazin-1-yl]-6-(3,4-dimethoxyphenyl)-pyrido[3,2-d]pyrimidine] here?
Its IC50 is 100 nM.

Same assay, conditions: Homo sapiens, RPMI-1788; MLR assay of example 319; read-out: MLR IC50

For `Cc1cccc(NC(=O)N2CCN(c3nc(N)nc4ccc(-c5c(F)cc(F)cc5F)nc34)CC2)c1` [Example 551, 2-amino-4-[(3-methylphenylcarbamoyl)-piperazin-1-yl]-6-(2,4,6-trifluoro-phenyl)-pyrido[3,2-d]pyrimidine], which IC50 is on record?
The IC50 was 500 nM.

Which IC50 does the source give for `Cc1cccc(NC(=O)N2CCN(c3ncnc4ccc(-c5ccc(C#N)cc5)nc34)CC2)c1` [Example 553, 4-[(3-methylphenylcarbamoyl)-piperazin-1-yl]-6-(4-cyanophenyl) Pyrido[3,2-d]pyrimidine] here?
Its IC50 is 60 nM.

`Cc1cccc(NC(=O)N2CCN(c3ncnc4ccc(-c5cccc(C#N)c5)nc34)CC2)c1` [Example 554, 4-[(3-methylphenylcarbamoyl)-piperazin-1-yl]-6-(3-cyanophenyl)pyrido[3,2-d]pyrimidine] was tested. Which IC50 did it give?
Its IC50 is 37 nM.

How did the IC50 turn out when `Cc1cccc(NC(=O)N2CCN(c3ncnc4ccc(-c5ccc(F)c(C)c5)nc34)CC2)c1` [Example 555, 4-[(3-methylphenylcarbamoyl)-piperazin-1-yl]-6-(3-methyl-4-fluoro-phenyl)pyrido[3,2-d]pyrimidine] was run?
The IC50 was 300 nM.

Which IC50 does the source give for `Cc1cccc(NC(=O)N2CCN(c3ncnc4ccc(-c5ccc(F)cc5F)nc34)CC2)c1` [Example 556, 4-[(3-methylphenylcarbamoyl)-piperazin-1-yl]-6-(2,4-difluorophenyl)pyrido[3,2-d]pyrimidine] here?
Its IC50 is 100 nM.

Which IC50 does the source give for `Cc1cccc(NC(=O)N2CCN(c3ncnc4ccc(-c5ccccc5C#N)nc34)CC2)c1` [Example 557, 4-[(3-methylphenylcarbamoyl)-piperazin-1-yl]-6-(2-cyanophenyl)pyrido[3,2-d]pyrimidine] here?
The IC50 was 30 nM.

How did the IC50 turn out when `Cc1cccc(NC(=O)N2CCN(c3ncnc4ccc(-c5ccc(F)cc5)nc34)CC2)c1` [Example 558, 4-[(3-methylphenylcarbamoyl)-piperazin-1-yl]-6-(4-fluorophenyl)pyrido[3,2-d]pyrimidine] was run?
The IC50 was 39 nM.

Which IC50 does the source give for `CCOc1ccc(-c2ccc3ncnc(N4CCN(C(=O)Nc5cccc(C)c5)CC4)c3n2)cc1F` [Example 559, 4-[(3-methylphenylcarbamoyl)-piperazin-1-yl]-6-(3-fluoro-4-ethoxyphenyl)pyrido[3,2-d]pyrimidine] here?
The IC50 was 178 nM.

For `CCOc1ccc(-c2ccc3ncnc(N4CCN(C(=O)Nc5cccc(C)c5)CC4)c3n2)cc1Cl` [Example 560, 4-[(3-methylphenylcarbamoyl)-piperazin-1-yl]-6-(3-chloro-4-ethoxyphenyl)pyrido[3,2-d]pyrimidine], which IC50 is on record?
Its IC50 is 380 nM.

Which IC50 does the source give for `Cc1cccc(NC(=O)N2CCN(c3ncnc4ccc(-c5cc(F)c(F)c(F)c5)nc34)CC2)c1` [Example 561, 4-[(3-methylphenylcarbamoyl)-piperazin-1-yl]-6-(3,4,5-trifluorophenyl)pyrido[3,2-d]pyrimidine] here?
The IC50 was 420 nM.

With `Cc1cccc(NC(=O)N2CCN(c3ncnc4ccc(-c5cccs5)nc34)CC2)c1` [Example 562, 4-[(3-methylphenylcarbamoyl)-piperazin-1-yl]-6-(2-thienyl)pyrido[3,2-d]pyrimidine] as the compound, how does the IC50 read?
Its IC50 is 53 nM.

Which IC50 does the source give for `Cc1cccc(NC(=O)N2CCN(c3ncnc4ccc(-c5ccco5)nc34)CC2)c1` [Example 563, 4-[(3-methylphenylcarbamoyl)-piperazin-1-yl]-6-(2-furanyl)pyrido[3,2-d]pyrimidine] here?
Its IC50 is 36 nM.

With `CC(C)(C)OC(=O)N1CCN(c2nc(Cl)nc3ccc(-c4ccc(F)cc4)nc23)CC1` [Example 566, 2-chloro-6-(4-fluorophenyl)-4-(4-Boc-piperazino)pyrido[3,2-d]pyrimidine] as the compound, how does the IC50 read?
The IC50 was > 10000 nM.

With `CC(C)(C)OC(=O)N1CCN(c2nc(N3CCCC3)nc3ccc(-c4ccc(F)cc4)nc23)CC1` [Example 567, 6-(4-fluorophenyl)-4-(4-Boc-piperazino)-2-pyrrolidino-pyrido[3,2-d]pyrimidine] as the compound, how does the IC50 read?
Its IC50 is > 10000 nM.

How did the IC50 turn out when `CC(C)(C)OC(=O)N1CCN(c2nc(NC3CCCC3)nc3ccc(-c4ccc(F)cc4)nc23)CC1` [Example 568, 2-cyclopentylamino-6-(4-fluorophenyl)-4-(4-Boc-piperazino)-pyrido[3,2-d]pyrimidine] was run?
The IC50 was 6500 nM.

For `CNc1nc(N2CCN(C(=O)OC(C)(C)C)CC2)c2nc(-c3ccc(F)cc3)ccc2n1` [Example 569, 2-methylamino-6-(4-fluorophenyl)-4-(4-Boc-piperazino)-pyrido[3,2-d]pyrimidine and 2,4-dimethylamino-6-(4-fluorophenyl)pyrido[3,2-d]pyrimidine], which IC50 is on record?
Its IC50 is 5900 nM.

For `Cc1cccc(NC(=O)N2CCN(c3nc(NC4CCCC4)nc4ccc(-c5ccc(F)cc5)nc34)CC2)c1` [Example 571, 2-cyclopentylamino-6-(4-fluorophenyl)-4-[(3-methylphenylcarbamoyl)-piperazin-1-yl]-pyrido[3,2-d]pyrimidine], which IC50 is on record?
Its IC50 is 500 nM.

How did the IC50 turn out when `O=C(COc1ccc(Cl)cc1)N1CCN(c2nc(NC3CCCC3)nc3ccc(-c4ccc(F)cc4)nc23)CC1` [Example 573, 2-cyclopentylamino-6-(4-fluorophenyl)-4-[N-(4-chlorophenoxyacetyl)-piperazin-1-yl]-pyrido[3,2-d]pyrimidine] was run?
Its IC50 is 8000 nM.

With `CNc1nc(N2CCN(C(=O)COc3ccc(Cl)cc3)CC2)c2nc(-c3ccc(F)cc3)ccc2n1` [Example 574, 2-methylamino-4-[N-(4-chlorophenoxyacetyl)-piperazin-1-yl]-6-(4-fluorophenyl)-pyrido[3,2-d]pyrimidine] as the compound, how does the IC50 read?
Its IC50 is 336 nM.

How did the IC50 turn out when `CC(C)(C)OC(=O)N[C@@H]1CCN(c2nc(N)nc3ccc(-c4ccc(F)cc4)nc23)C1` [Example 575, 2-amino-4-[(R)-3-Boc-amino-pyrrolidin-1-yl]-6-(4-fluorophenyl)-pyrido(3,2-d)pyrimidine] was run?
The IC50 was > 10000 nM.

`CC(C)(C)OC(=O)N[C@H]1CCN(c2nc(N)nc3ccc(-c4ccc(F)cc4)nc23)C1` [Example 576, 2-amino-4-[(S)-3-Boc-amino-pyrrolidin-1-yl]-6-(4-fluorophenyl)-pyrido(3,2-d)pyrimidine] was tested. Which IC50 did it give?
Its IC50 is 4200 nM.

With `CC(C)(C)OC(=O)N1CCC(Nc2nc(N)nc3ccc(-c4ccc(F)cc4)nc23)C1` [Example 577, 2-amino-4-[(S)-1-Boc-amino-pyrrolidin-3-yl]-6-(4-fluorophenyl)-pyrido(3,2-d)pyrimidine] as the compound, how does the IC50 read?
The IC50 was 4400 nM.

`Cc1cccc(NC(=O)N[C@H]2CCN(c3nc(N)nc4ccc(-c5ccc(F)cc5)nc34)C2)c1` [Example 578] was tested. Which IC50 did it give?
Its IC50 is > 10000 nM.

For `Cc1cccc(NC(=O)N[C@@H]2CCN(c3nc(N)nc4ccc(-c5ccc(F)cc5)nc34)C2)c1` [Example 579], which IC50 is on record?
Its IC50 is > 10000 nM.

Which IC50 does the source give for `Cc1cccc(NC(=O)N2CCC(Nc3nc(N)nc4ccc(-c5ccc(F)cc5)nc34)C2)c1` [Example 580, 2-amino-4-[1-(3-methylphenylcarbamoyl)-(S)-amino-pyrrolidin-3-yl]-6-(4-fluorophenyl)-pyrido(3,2-d)pyrimidine] here?
Its IC50 is 300 nM.
